{"source": "patent US11974991B1", "about": "“Adenosine receptor activity of methyl/ethyl 3-(substituted benzoyl)-6,8-dimethylindolizine-2-substituted-1-carboxylates” (KING FAISAL UNIVERSITY, priority 2023, dated 2024)", "key": {"human A1R": {"target": "human A1R (Homo sapiens (Human), UniProt P30542)", "sequence (P30542 whole entry)": "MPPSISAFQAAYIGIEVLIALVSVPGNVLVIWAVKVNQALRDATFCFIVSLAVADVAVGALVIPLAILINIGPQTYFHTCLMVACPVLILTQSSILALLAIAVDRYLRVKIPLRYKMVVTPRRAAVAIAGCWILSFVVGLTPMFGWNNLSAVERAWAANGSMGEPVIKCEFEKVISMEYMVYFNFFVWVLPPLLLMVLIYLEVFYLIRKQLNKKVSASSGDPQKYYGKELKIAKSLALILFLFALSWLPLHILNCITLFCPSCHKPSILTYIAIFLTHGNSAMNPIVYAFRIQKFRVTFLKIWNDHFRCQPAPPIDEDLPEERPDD", "experiment": "Displacement of specific [3H]-CCPA binding at human A1R expressed in CHO cells", "settings": "for Ki: [3H]-CCPA displacement, CHO cells, means ± SE, read-out: hA1R (Ki nM)", "source_text": "(§1) Table 1 below reports the affinity and antagonist values of compounds KNV1-KNV13. In particular, the binding affinity is expressed in Ki and the antagonistic activity in IC50."}, "human A2AR": {"target": "human A2AR (Homo sapiens (Human), UniProt P29274)", "sequence (P29274 whole entry)": "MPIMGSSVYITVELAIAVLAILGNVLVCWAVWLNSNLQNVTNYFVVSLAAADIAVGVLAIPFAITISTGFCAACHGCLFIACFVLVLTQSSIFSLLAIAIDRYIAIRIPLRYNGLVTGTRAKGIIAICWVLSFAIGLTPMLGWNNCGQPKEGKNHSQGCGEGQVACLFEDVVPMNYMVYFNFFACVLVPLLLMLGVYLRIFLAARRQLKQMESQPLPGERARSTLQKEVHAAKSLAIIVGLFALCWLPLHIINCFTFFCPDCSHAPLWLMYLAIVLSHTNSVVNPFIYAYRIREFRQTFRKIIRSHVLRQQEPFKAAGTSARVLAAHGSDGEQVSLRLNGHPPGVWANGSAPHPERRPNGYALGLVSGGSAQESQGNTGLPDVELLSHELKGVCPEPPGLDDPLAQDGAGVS", "experiment": "Displacement of specific [3H]-NECA binding at human A2AR expressed in CHO cells", "settings": "for Ki: [3H]-NECA displacement, CHO cells, means ± SE, read-out: hA2AR (Ki nM)", "source_text": "as §1"}, "hA2BR": {"target": "hA2BR (Homo sapiens (Human), UniProt P29275)", "sequence (P29275 whole entry)": "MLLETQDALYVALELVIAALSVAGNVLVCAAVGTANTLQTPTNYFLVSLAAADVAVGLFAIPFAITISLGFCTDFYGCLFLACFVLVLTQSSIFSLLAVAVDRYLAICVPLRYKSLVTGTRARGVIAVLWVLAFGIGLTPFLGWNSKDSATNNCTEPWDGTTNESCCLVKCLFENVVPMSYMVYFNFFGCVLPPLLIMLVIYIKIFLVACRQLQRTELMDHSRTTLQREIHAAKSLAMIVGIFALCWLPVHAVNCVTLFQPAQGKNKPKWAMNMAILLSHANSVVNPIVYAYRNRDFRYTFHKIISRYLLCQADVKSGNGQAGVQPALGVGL", "experiment": "Inhibition of NECA-stimulated adenylyl cyclase activity / cAMP accumulation (GloSensor cAMP assay) in CHO cells expressing hA2BR", "type": "cell-based", "settings": "for IC50: inhibiting NECA-stimulated adenylyl cyclase activity, CHO cells, means ± SE", "procedure": "(§2) The activity of the present compounds was evaluated using the GloSensor™ cAMP assay, which is a new non-radioactive method offering a simple approach to monitor GPCR activity through changes in the intracellular cAMP concentration. This assay uses a mutant form of Photinus pyralis luciferase into which a cAMP-binding protein moiety has been inserted. The binding with cAMP triggers a biosensor conformational change that leads to an increase of light output allowing to evaluate the activity of ligands at the receptor under study. Following pre-equilibration with a substrate, cells stably expressing both the receptor of interest and the biosensor can be used to evaluate GPCR function enabling easy kinetic measurements of cAMP accumulation or turnover in living cells.\nThe antagonist profile of the compounds on A2BAR was evaluated by assessing their ability to counteract the agonist NECA-induced increase of cAMP accumulation. After 2 hrs of equilibration in reaction medium cells were incubated in 384 well plate (10 min at room temperature) with 3 μl of different antagonist concentrations and then treated with 3 μl of a fixed dose of NECA. After further 10 minutes of incubation various luminescence reads were performed at different incubation times."}, "human A3R": {"target": "human A3R (Homo sapiens (Human), UniProt P0DMS8)", "sequence (P0DMS8 whole entry)": "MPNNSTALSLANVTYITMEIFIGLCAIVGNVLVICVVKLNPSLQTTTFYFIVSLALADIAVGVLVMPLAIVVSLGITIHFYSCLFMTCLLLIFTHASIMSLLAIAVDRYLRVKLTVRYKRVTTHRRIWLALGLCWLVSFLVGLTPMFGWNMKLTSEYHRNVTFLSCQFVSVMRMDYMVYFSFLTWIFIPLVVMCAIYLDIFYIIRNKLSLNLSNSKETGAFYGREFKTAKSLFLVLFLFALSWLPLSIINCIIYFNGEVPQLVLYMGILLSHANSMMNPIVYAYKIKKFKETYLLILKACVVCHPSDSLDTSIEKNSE", "experiment": "Displacement of specific [3H]-HEMADO binding at human A3R expressed in CHO cells", "source_text": "as §1"}, "hA3R": {"target": "hA3R (Homo sapiens (Human), UniProt P0DMS8)", "sequence (P0DMS8 whole entry)": "as above", "experiment": "Counteracting NECA-induced decrease of cAMP accumulation (GloSensor cAMP assay) in CHO cells expressing hA3R", "type": "cell-based", "procedure": "as §2\nThe antagonist profile of the compounds on A3AR was studied by assessing their ability to counteract the NECA-induced decrease of cAMP accumulation. After 2 hrs of equilibration in reaction medium the cells were incubated in a 384 well plate (10 min at room temperature) with 3 μl of different antagonist concentrations and then treated with 3 μl of a fixed dose of agonist. 1 μl of Forskolin 500 μM, final concentration 10 μM, were added 10 minutes after agonist and various luminescence reads were performed at different incubation times."}, "[1]": {"settings": "[3H]-HEMADO displacement, CHO cells, means ± SE, read-out: hA3R (Ki nM)"}, "[2]": {"settings": "counteracting NECA-induced decrease of cAMP accumulation, CHO cells expressing hA3R, means ± SE, read-out: hA2AR (IC50 nM) [footnote e: hA3R]"}}, "note": "Like-named read-outs stand apart in the source and are kept apart here.", "data": [{"molecule": "CCOC(=O)c1cc(C(=O)c2ccc(Cl)cc2)n2cc(C)cc(C)c12", "note": "[KNV1, Ethyl 3-(4-chlorobenzoyl)-6,8-dimethylindolizine-1-carboxylate]", "values": [{"measurement": "Ki", "setting": "human A1R", "result": "> 30000", "unit": "nM"}, {"measurement": "Ki", "setting": "human A2AR", "result": "> 30000", "unit": "nM"}, {"measurement": "IC50", "setting": "hA2BR", "result": "> 30000", "unit": "nM"}, {"measurement": "Ki", "setting": "human A3R; [1]", "result": "591 ± 112", "unit": "nM"}, {"measurement": "IC50", "setting": "hA3R; [2]", "result": "1510 ± 351", "unit": "nM"}]}, {"molecule": "COC(=O)c1c(C(=O)OC)c2c(C)cc(C)cn2c1C(=O)c1ccc(OC)cc1", "note": "[KNV2, Dimethyl 3-(4-methoxybenzoyl)-6,8-dimethylindolizine-1,2-dicarboxylate]", "values": [{"measurement": "Ki", "setting": "human A1R", "result": "1330 ± 217", "unit": "nM"}, {"measurement": "Ki", "setting": "human A2AR", "result": "4820 ± 243", "unit": "nM"}, {"measurement": "IC50", "setting": "hA2BR", "result": "> 30000", "unit": "nM"}, {"measurement": "Ki", "setting": "human A3R; [1]", "result": "1910 ± 45", "unit": "nM"}, {"measurement": "IC50", "setting": "hA3R; [2]", "result": "7900 ± 1080", "unit": "nM"}]}, {"molecule": "COC(=O)c1c(C(=O)OC)c2c(C)cc(C)cn2c1C(=O)c1ccc(Br)cc1", "note": "[KNV4, Dimethyl 3-(4-bromobenzoyl)-6,8-dimethylindolizine-1,2-dicarboxylate]", "values": [{"measurement": "Ki", "setting": "human A1R", "result": "6980 ± 330", "unit": "nM"}, {"measurement": "Ki", "setting": "human A2AR", "result": "5540 ± 998", "unit": "nM"}, {"measurement": "IC50", "setting": "hA2BR", "result": "> 30000", "unit": "nM"}, {"measurement": "Ki", "setting": "human A3R; [1]", "result": "2160 ± 468", "unit": "nM"}, {"measurement": "IC50", "setting": "hA3R; [2]", "result": "9580 ± 1080", "unit": "nM"}]}, {"molecule": "CCOC(=O)c1cc(C(=O)c2ccccc2[N+](=O)[O-])n2cc(C)cc(C)c12", "note": "[KNV6, Ethyl 6,8-dimethyl-3-(2-nitrobenzoyl)indolizine-1-carboxylate]", "values": [{"measurement": "Ki", "setting": "human A1R", "result": "> 30000", "unit": "nM"}, {"measurement": "Ki", "setting": "human A2AR", "result": "7970 ± 1660", "unit": "nM"}, {"measurement": "IC50", "setting": "hA2BR", "result": "> 30000", "unit": "nM"}, {"measurement": "Ki", "setting": "human A3R; [1]", "result": "930 ± 159", "unit": "nM"}, {"measurement": "IC50", "setting": "hA3R; [2]", "result": "3420 ± 879", "unit": "nM"}]}, {"molecule": "CCOC(=O)c1cc(C(=O)c2ccc(C)cc2)n2cc(C)cc(C)c12", "note": "[KNV7, Ethyl 6,8-dimethyl-3-(4-methylbenzoyl)indolizine-1-carboxylate]", "values": [{"measurement": "Ki", "setting": "human A1R", "result": "> 30000", "unit": "nM"}, {"measurement": "Ki", "setting": "human A2AR", "result": "4970 ± 508", "unit": "nM"}, {"measurement": "IC50", "setting": "hA2BR", "result": "> 30000", "unit": "nM"}, {"measurement": "Ki", "setting": "human A3R; [1]", "result": "1070 ± 157", "unit": "nM"}, {"measurement": "IC50", "setting": "hA3R; [2]", "result": "4210 ± 1150", "unit": "nM"}]}, {"molecule": "COC(=O)c1c(C(=O)OC)c2c(C)cc(C)cn2c1C(=O)c1ccc(C)cc1", "note": "[KNV8, Dimethyl 6,8-dimethyl-3-(4-methylbenzoyl)indolizine-1,2-dicarboxylate]", "values": [{"measurement": "Ki", "setting": "human A1R", "result": "2390 ± 171", "unit": "nM"}, {"measurement": "Ki", "setting": "human A2AR", "result": "1609 ± 13", "unit": "nM"}, {"measurement": "IC50", "setting": "hA2BR", "result": "> 30000", "unit": "nM"}, {"measurement": "Ki", "setting": "human A3R; [1]", "result": "3090 ± 6", "unit": "nM"}, {"measurement": "IC50", "setting": "hA3R; [2]", "result": "11000 ± 2050", "unit": "nM"}]}, {"molecule": "CCOC(=O)c1cc(C(=O)c2ccc(OC)cc2)n2cc(C)cc(C)c12", "note": "[KNV9, Ethyl 3-(4-methoxybenzoyl)-6,8-dimethylindolizine-1-carboxylate]", "values": [{"measurement": "Ki", "setting": "human A1R", "result": "> 30000", "unit": "nM"}, {"measurement": "Ki", "setting": "human A2AR", "result": "> 30000", "unit": "nM"}, {"measurement": "IC50", "setting": "hA2BR", "result": "> 30000", "unit": "nM"}, {"measurement": "Ki", "setting": "human A3R; [1]", "result": "305 ± 57", "unit": "nM"}, {"measurement": "IC50", "setting": "hA3R; [2]", "result": "865 ± 105", "unit": "nM"}]}, {"molecule": "COC(=O)c1c(C(=O)OC)c2c(C)cc(C)cn2c1C(=O)c1ccc(Cl)cc1", "note": "[KNV10, Dimethyl 3-(4-chlorobenzoyl)-6,8-dimethylindolizine-1,2-dicarboxylate]", "values": [{"measurement": "Ki", "setting": "human A1R", "result": "5610 ± 1080", "unit": "nM"}, {"measurement": "Ki", "setting": "human A2AR", "result": "6880 ± 705", "unit": "nM"}, {"measurement": "IC50", "setting": "hA2BR", "result": "> 30000", "unit": "nM"}, {"measurement": "Ki", "setting": "human A3R; [1]", "result": "924 ± 127", "unit": "nM"}, {"measurement": "IC50", "setting": "hA3R; [2]", "result": "4210 ± 521", "unit": "nM"}]}, {"molecule": "CCOC(=O)c1cc(C(=O)c2ccc(C#N)cc2)n2cc(C)cc(C)c12", "note": "[KNV11, Ethyl 3-(4-cyanobenzoyl)-6,8-dimethylindolizine-1-carboxylate]", "values": [{"measurement": "Ki", "setting": "human A1R", "result": "> 30000", "unit": "nM"}, {"measurement": "Ki", "setting": "human A2AR", "result": "> 30000", "unit": "nM"}, {"measurement": "IC50", "setting": "hA2BR", "result": "> 30000", "unit": "nM"}, {"measurement": "Ki", "setting": "human A3R; [1]", "result": "8540 ± 1500", "unit": "nM"}, {"measurement": "IC50", "setting": "hA3R; [2]", "result": "25900 ± 4200", "unit": "nM"}]}, {"molecule": "COC(=O)c1c(C(=O)OC)c2c(C)cc(C)cn2c1C(=O)c1ccc(C#N)cc1", "note": "[KNV12, Dimethyl 3-(4-cyanobenzoyl)-6,8-dimethylindolizine-1,2-dicarboxylate]", "values": [{"measurement": "Ki", "setting": "human A1R", "result": "> 30000", "unit": "nM"}, {"measurement": "Ki", "setting": "human A2AR", "result": "> 30000", "unit": "nM"}, {"measurement": "IC50", "setting": "hA2BR", "result": "> 30000", "unit": "nM"}, {"measurement": "Ki", "setting": "human A3R; [1]", "result": "12100 ± 1700", "unit": "nM"}, {"measurement": "IC50", "setting": "hA3R; [2]", "result": "41100 ± 9220", "unit": "nM"}]}, {"molecule": "CCOC(=O)c1cc(C(=O)c2cc(C(F)(F)F)cc(C(F)(F)F)c2)n2cc(C)cc(C)c12", "note": "[KNV13, Ethyl 3-(3,5-bis(trifluoromethyl)benzoyl)-6,8-dimethylindolizine-1-carboxylate]", "values": [{"measurement": "Ki", "setting": "human A1R", "result": "> 30000", "unit": "nM"}, {"measurement": "Ki", "setting": "human A2AR", "result": "> 30000", "unit": "nM"}, {"measurement": "IC50", "setting": "hA2BR", "result": "> 30000", "unit": "nM"}, {"measurement": "Ki", "setting": "human A3R; [1]", "result": "7140 ± 130", "unit": "nM"}, {"measurement": "IC50", "setting": "hA3R; [2]", "result": "28000 ± 5220", "unit": "nM"}]}, {"molecule": "Ethyl 3-(4-bromobenzoyl)-6,8-dimethylindolizine-1-carboxylate [KNV3]", "values": [{"measurement": "Ki", "setting": "human A1R", "result": "> 30000", "unit": "nM"}, {"measurement": "Ki", "setting": "human A2AR", "result": "> 30000", "unit": "nM"}, {"measurement": "IC50", "setting": "hA2BR", "result": "> 30000", "unit": "nM"}, {"measurement": "Ki", "setting": "human A3R; [1]", "result": "> 30000", "unit": "nM"}, {"measurement": "IC50", "setting": "hA3R; [2]", "result": "> 30000", "unit": "nM"}]}, {"molecule": "Ethyl 3-(4-fluorobenzoyl)-6,8-dimethylindolizine-1-carboxylate [KNV5]", "values": [{"measurement": "activity in the other subtypes (A1)", "setting": "human A1R", "result": "not active"}, {"measurement": "Ki", "setting": "human A1R", "result": "> 30000", "unit": "nM"}, {"measurement": "activity in the other subtypes (A2A)", "setting": "human A2AR", "result": "not active"}, {"measurement": "Ki", "setting": "human A2AR", "result": "> 30000", "unit": "nM"}, {"measurement": "activity in the other subtypes (A2B)", "setting": "hA2BR", "result": "not active"}, {"measurement": "IC50", "setting": "hA2BR", "result": "> 30000", "unit": "nM"}, {"measurement": "Ki", "setting": "human A3R; [1]", "result": "213 ± 16", "unit": "nM"}, {"measurement": "Ki", "setting": "human A3R; unit inferred, read-out: Ki towards A3AR", "result": 213, "unit": "nM"}, {"measurement": "IC50", "setting": "hA3R; [2]", "result": "196 ± 55", "unit": "nM"}, {"measurement": "IC50", "setting": "hA3R; unit inferred, read-out: IC50, antagonistic activity on A3AR", "result": 196, "unit": "nM"}]}]}
